Measurements from PubChem BioAssay AID212 (DTP/NCI, 2004).
Several values for one entry are separate records, joined by “and”; a condition that tells them apart may be missing. Equal entries are not always repeated. Inconclusive results are not listed.

System: BDF1 mice, colon carcinoma 38 sc, T/C %
Assay: NCI In Vivo Anticancer Drug Screen. Data for tumor model Colon Carcinoma 38 (subcutaneous) in B6D2F1 (BDF1) mice
Outline: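 Mice with transplanted tumors are treated with compound or vehicle. Survival or tumor size is then measured in both groups. The ratio of treated to control gives the reported figure.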

[1] = endpoint: median tumor weight (est.), dose: 6.25 mg/kg/injection, schedule: Q07DX002 (ip), vehicle: saline with Tween-80, higher = larger tumour
[2] = endpoint: median tumor weight (est.), dose: 25.0 mg/kg/injection, schedule: Q07DX002 (ip), vehicle: saline with Tween-80, higher = larger tumour
[3] = endpoint: median tumor weight (est.), dose: 50.0 mg/kg/injection, schedule: Q07DX002 (ip), vehicle: saline with Tween-80, higher = larger tumour
[4] = endpoint: median tumor weight (est.), dose: 100.0 mg/kg/injection, schedule: Q07DX002 (ip), vehicle: saline, higher = larger tumour
[5] = endpoint: median tumor weight (est.), dose: 200.0 mg/kg/injection, schedule: Q07DX002 (ip), vehicle: saline, higher = larger tumour
[6] = endpoint: median tumor weight (est.), dose: 12.5 mg/kg/injection, schedule: Q07DX002 (ip), vehicle: saline with Tween-80, higher = larger tumour

CN1CCN(CCCN2c3ccccc3Sc3ccc(C(F)(F)F)cc32)CC1
T/C [1]: 104 % of control
T/C (endpoint: median tumor weight (est.), dose: 6.25 mg/kg/injection, schedule: Q07DX002 (ip), vehicle: saline, higher = larger tumour): 116 % of control
T/C (endpoint: median tumor weight (est.), dose: 12.5 mg/kg/injection, schedule: Q07DX002 (ip), vehicle: saline, higher = larger tumour): 112 % of control
T/C [2]: 91 % of control
T/C (endpoint: median tumor weight (est.), dose: 25.0 mg/kg/injection, schedule: Q07DX002 (ip), vehicle: saline, higher = larger tumour): 97 % of control
T/C [3]: 96 % of control
T/C (endpoint: median tumor weight (est.), dose: 50.0 mg/kg/injection, schedule: Q07DX002 (ip), vehicle: saline, higher = larger tumour): 90 % of control
T/C [4]: 96 % of control
T/C [5]: 74 % of control

C[C@]12CC[C@@H]3c4ccc(O)cc4CC[C@H]3[C@@H]1CC[C@@H]2O
T/C (endpoint: median tumor weight (est.), dose: 6.25 mg/kg/injection, schedule: Q07DX002 (ip), vehicle: Klucel (hydroxypropylcellulose) (HPC), higher = larger tumour): 83 % of control
T/C (endpoint: median tumor weight (est.), dose: 12.5 mg/kg/injection, schedule: Q07DX002 (ip), vehicle: Klucel (hydroxypropylcellulose) (HPC), higher = larger tumour): 108 % of control and 249 % of control
T/C (endpoint: median tumor weight (est.), dose: 25.0 mg/kg/injection, schedule: Q07DX002 (ip), vehicle: Klucel (hydroxypropylcellulose) (HPC), higher = larger tumour): 282 % of control and 99 % of control
T/C (endpoint: median tumor weight (est.), dose: 50.0 mg/kg/injection, schedule: Q07DX002 (ip), vehicle: Klucel (hydroxypropylcellulose) (HPC), higher = larger tumour): 260 % of control
T/C (endpoint: median tumor weight (est.), dose: 100.0 mg/kg/injection, schedule: Q07DX002 (ip), vehicle: Klucel (hydroxypropylcellulose) (HPC), higher = larger tumour): 282 % of control
T/C (endpoint: median tumor weight (est.), dose: 200.0 mg/kg/injection, schedule: Q07DX002 (ip), vehicle: Klucel (hydroxypropylcellulose) (HPC), higher = larger tumour): 117 % of control and 271 % of control

CN=S(=O)(OCCCCCOS(=O)(=NC)c1ccccc1)c1ccccc1 (centres undefined)
T/C [6]: 58 % of control
T/C [2]: 74 % of control
T/C [3]: 69 % of control
T/C (endpoint: median tumor weight (est.), dose: 200.0 mg/kg/injection, schedule: Q07DX002 (ip), vehicle: saline with Tween-80, higher = larger tumour): 59 % of control

CCCC(=O)OC1C=C2N3C(=O)C4CC56C(=CC(OC(C)=O)C7OC75)N4C(=O)C3CC26C2OC12 (centres undefined)
T/C (endpoint: median tumor weight (est.), dose: 1.25 mg/kg/injection, schedule: Q07DX002 (ip), vehicle: Klucel (hydroxypropylcellulose) (HPC), higher = larger tumour): 111 % of control
T/C (endpoint: median tumor weight (est.), dose: 2.5 mg/kg/injection, schedule: Q07DX002 (ip), vehicle: Klucel (hydroxypropylcellulose) (HPC), higher = larger tumour): 92 % of control
T/C (endpoint: median tumor weight (est.), dose: 5.0 mg/kg/injection, schedule: Q07DX002 (ip), vehicle: Klucel (hydroxypropylcellulose) (HPC), higher = larger tumour): 102 % of control
T/C (endpoint: median tumor weight (est.), dose: 10.0 mg/kg/injection, schedule: Q07DX002 (ip), vehicle: Klucel (hydroxypropylcellulose) (HPC), higher = larger tumour): 76 % of control

O=C(O)CCc1cccc2c(=O)cc(-c3ccccc3)oc12
T/C [4]: 60 % of control
T/C [5]: 100 % of control
T/C (endpoint: median tumor weight (est.), dose: 400.0 mg/kg/injection, schedule: Q07DX002 (ip), vehicle: saline, higher = larger tumour): 120 % of control

CCOC(=O)c1c[nH]c2oc(/C=N/N3CC(CN4CCOCC4)OC3=O)cc2c1=O (centres undefined)
T/C (endpoint: median tumor weight (est.), dose: 25.0 mg/kg/injection, schedule: Q07DX003 (ip), vehicle: saline, higher = larger tumour): 116 % of control and 120 % of control
T/C (endpoint: median tumor weight (est.), dose: 100.0 mg/kg/injection, schedule: Q07DX003 (ip), vehicle: saline, higher = larger tumour): 93 % of control and 102 % of control
T/C (endpoint: median tumor weight (est.), dose: 150.0 mg/kg/injection, schedule: Q07DX002 (ip), vehicle: other, higher = larger tumour): 92 % of control
T/C (endpoint: median tumor weight (est.), dose: 200.0 mg/kg/injection, schedule: Q07DX003 (ip), vehicle: saline, higher = larger tumour): 108 % of control and 106 % of control
T/C (endpoint: median tumor weight (est.), dose: 300.0 mg/kg/injection, schedule: Q07DX002 (ip), vehicle: other, higher = larger tumour): 59 % of control
T/C (endpoint: median tumor weight (est.), dose: 600.0 mg/kg/injection, schedule: Q07DX002 (ip), vehicle: other, higher = larger tumour): 59 % of control
T/C (endpoint: median tumor weight (est.), dose: 900.0 mg/kg/injection, schedule: Q07DX002 (ip), vehicle: other, higher = larger tumour): 34 % of control

O=C1c2cccc3cc([N+](=O)[O-])cc(c23)C(=O)N1CCN1CCCC1
T/C (endpoint: median tumor weight (est.), dose: 3.13 mg/kg/injection, schedule: Q07DX002 (ip), vehicle: saline with Tween-80, higher = larger tumour): 107 % of control
T/C [1]: 71 % of control
T/C [6]: 84 % of control
T/C [2]: 67 % of control

CO[C@H]1C[C@](C)(O)Cc2cc3c(c(O)c21)C(=O)c1c(O)cc2c(c1C3=O)O[C@@H]1O[C@@]2(C)[C@H](O)[C@@H](N(C)C)[C@@H]1O
T/C (endpoint: median survival time, dose: 72.0 mg/kg/injection, schedule: Q07DX003 (sc), vehicle: other, higher = longer survival): 166 % of control
T/C (endpoint: median tumor weight (est.), dose: 12.5 mg/kg/injection, schedule: Q07DX002 (ip), vehicle: other, higher = larger tumour): 69 % of control
T/C (endpoint: median tumor weight (est.), dose: 25.0 mg/kg/injection, schedule: Q07DX002 (ip), vehicle: other, higher = larger tumour): 21 % of control and 41 % of control
T/C (endpoint: median tumor weight (est.), dose: 50.0 mg/kg/injection, schedule: Q07DX002 (ip), vehicle: other, higher = larger tumour): 1 % of control

CC(=O)OCC1OC(OC(C)=O)C(NC(=O)N(CCCl)N=O)C(OC(C)=O)C1OC(C)=O (centres undefined)
T/C (endpoint: median tumor weight (est.), dose: 0.75 mg/kg/injection, schedule: Q07DX002 (ip), vehicle: Klucel (hydroxypropylcellulose) (HPC), higher = larger tumour): 100 % of control
T/C (endpoint: median tumor weight (est.), dose: 1.5 mg/kg/injection, schedule: Q07DX002 (ip), vehicle: Klucel (hydroxypropylcellulose) (HPC), higher = larger tumour): 82 % of control and 96 % of control
T/C (endpoint: median tumor weight (est.), dose: 3.0 mg/kg/injection, schedule: Q07DX002 (ip), vehicle: Klucel (hydroxypropylcellulose) (HPC), higher = larger tumour): 64 % of control
